# What was measured:
# Assay in all cases: combination Emax (second highest fraction inhibited in the dose matrix, 72 h); higher = more inhibition; extreme values may be limits of the assay
# [1] = tested on: ES-2 (Ovarian Carcinoma)
# Summary of the method: (§1)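 Cell lines in DMEM/F12 or RPMI with 10% FBS were plated in 1536-well plates, held 24 hours at 37°C, 5% CO2, then given two-drug dose matrices for 72 hours (DMSO typically 0.2%). Viability was read by CellTiter-Glo 2.0 luminescence and scaled as inhibition from 0 (vehicle wells) to 1 (blank wells). Combination Emax is the second-highest inhibition in the matrix; Bliss excess is observed combination effect minus expected EA + EB − EA·EB, EA and EB being single-agent effects.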
# [2] = tested on: CHL-1 (Melanoma)
# Summary of the method: as §1
# [3] = tested on: HCC-44 (Lung Adenocarcinoma)
# Summary of the method: as §1
# [4] = tested on: SK-MM-2 (Plasma Cell Myeloma)
# Summary of the method: as §1
# [5] = tested on: LOUCY (T-Lymphoblastic Leukemia)
# Summary of the method: as §1
# [6] = tested on: PANC-02-03 (Pancreatic Carcinoma)
# Summary of the method: as §1
# [7] = tested on: PC-14 (Lung Adenocarcinoma)
# Summary of the method: as §1
# [8] = tested on: NKM-1 (Acute Myeloid Leukemia)
# Summary of the method: as §1
# [9] = tested on: Becker (Low Grade Glioma)
# Summary of the method: as §1
# [10] = tested on: NCI-H810 (Non-Small Cell Lung Carcinoma)
# Summary of the method: as §1
# [11] = tested on: EB-3 (Burkitt's Lymphoma)
# Summary of the method: as §1
# [12] = tested on: RMG-I (Ovarian Carcinoma)
# Summary of the method: as §1
# [13] = tested on: NCI-H1755 (Lung Adenocarcinoma)
# Summary of the method: as §1
# [14] = tested on: KYSE-70 (Esophageal Squamous Cell Carcinoma)
# Summary of the method: as §1
# [15] = tested on: SJRH30 (Rhabdomyosarcoma)
# Summary of the method: as §1
# [16] = tested on: FLO-1 (Esophageal Adenocarcinoma)
# Summary of the method: as §1
# [17] = tested on: HuO-3N1 (Osteosarcoma)
# Summary of the method: as §1
# [18] = tested on: KYM-1 (Rhabdomyosarcoma)
# Summary of the method: as §1
# [19] = tested on: OV-90 (Ovarian Carcinoma)
# Summary of the method: as §1
# [20] = tested on: CML-T1 (Chronic Myelogenous Leukemia)
# Summary of the method: as §1
structure (smiles),measurement,setting,value
"CS(=O)(=O)CCNCc1ccc(-c2ccc3ncnc(Nc4ccc(OCc5cccc(F)c5)c(Cl)c4)c3c2)o1 [Lapatinib] + NC1(c2ccc(-c3nc4ccn5c(=O)[nH]nc5c4cc3-c3ccccc3)cc2)CCC1 [MK-2206] (first compound max 10 µM, 7x7, partner max 10 µM)",combination Emax,[1],0.936
same,combination Emax,[2],0.5
same,combination Emax,[3],0.852
same,combination Emax,[4],0.52
same,combination Emax,[5],0.912
same,combination Emax,[6],0.643
same,combination Emax,[7],0.993
same,combination Emax,[8],0.94
same,combination Emax,[9],0.808
same,combination Emax,[10],0.389
same,combination Emax,[11],0.937
same,combination Emax,[12],0.679
same,combination Emax,[13],0.88
same,combination Emax,[14],0.613
same,combination Emax,[15],0.914
same,combination Emax,[16],0.793
same,combination Emax,[17],0.869
same,combination Emax,[18],0.945
same,combination Emax,[19],0.623
same,combination Emax,[20],0.948

# Reference: the supplement of paper PMC11061612
